Measurements from patent US20240216513A1, “FATTY ACID-BIFUNCTIONAL DEGRADER CONJUGATES AND THEIR METHODS OF USE” (Novartis AG, priority 2021, published 2024).
Where two headings read alike, the source gives them in different places.

Key:
[1] = tested on: TMD8 tumors; experiment: Efficacy in ectopic (subcutaneous) TMD8 tumor-bearing SCID/BEIGE mice, tumor volume; type: in vivo, mouse; details: 20 mgL/kg (unconjugated V)
Method: All animal experiments were performed according to procedures covered by permit number BS-1974, BS-1975 and BS-2904 issued by the Kantonales Veterinäramt Basel-Stadt and strictly adhered to the Eidgenössisches Tierschutzgesetz and the Eidgenössische Tierschutzverordnung. Female Sprague Dawley rat were obtained from Charles Rivers (Germany), female Balb/c mice from Charles Rivers (Italy) and female SCID/BEIGE (C.B-Igh-1b/GbmsTac-Prkdcscid-Lystbg N7) mice from Taconic. All the animals were housed in a pathogen-controlled environment with access to food and water ad libitum and they were identified with transponders.
Subcutaneous TMD8 tumors were induced by injecting tumor cells expanded in vitro in the right flank of SCID/BEIGE mice. As soon as the injection was finished, antagonization (naloxone, flumazenil and atipamezole injected s.c.) was injected and mice are put on a warming pad for recovery and carefully checked during that time.
For PK experiments, non-tumor bearing mice or rats were treated once (10 mL/kg) with a compound either i.v. or s.c. Serial blood samplings from the tail vein (5-20 μl) were collected during the course of the experiment. For PK/PD experiments in tumor-bearing mice, compound was administered once (10 mL/kg) either i.v. or s.c. Animals were randomized into groups of n=3 and tissue samples were collected at several time points. At the times indicated, animals were anaesthetized by exposure to 2-3% v/v isoflurane in medical oxygen. They were sacrificed without recovering from anesthetic after blood sampling into commercially prepared EDTA coated tubes (Milian, cat #TOM-14C) in order to extract plasma. The tissues were excised, weighted and rapidly frozen in liquid nitrogen. Later, tumors were cryogenic dry pulverized with the CryoPrep™ system (model CP-02, Covaris). For efficacy experiments in ectopic tumor-bearing mice, animals were randomized into groups of n=6 for a mean tumor size of 100 mm^3 and compound was administered either i.v. q3w or s.c. q2w. When implanted in brain, animals were randomized into groups of n=4 for a mean bioluminescence of 1.0-2.0E+06 [p/s]/[ρW/cm^2] and compound was administered i.v. qw. Tumor response were reported with the measures of tumor volumes or bioluminescence from the treatment start. Concentrations of compound in blood and tissues were determined simultaneously by UPLC/MS-MS. BTK and IL-10 levels in tumor were determined by Meso Scale Discovery (MSD).

[2] = BTK FAC plasma stability assay, dog plasma; type: in vitro ADME
[3] = In vivo pharmacokinetic study in mice (i.v. or s.c.), FAC and payload in blood; design: species or system mouse; details: for AUC: male, C57/B16, whole blood

## COc1ccc(C(=O)N2CCC3(CCN(CCc4ccc(-c5cc6c(-c7cc(F)cc(NC(=O)c8ccc(C(C)(C)O)cc8F)c7C)ncnc6[nH]5)cc4)CC3)CC2)cc1N1CCC(=O)NC1=O [Compound V, N-(3-(6-(4-(2-(9-(3-(2,4-Dioxotetrahydropyrimidin-1(2H)-yl)-4-methoxybenzoyl)-3,9-diazaspiro[5.5]undecan-3-yl)ethyl)phenyl)-7H-pyrrolo[2,3-d]pyrimidin-4-yl)-5-fluoro-2-methylphenyl)-2-fluoro-4-(2-hydroxypropan-2-yl)benzamide]
[1]; i.v.
  Dosing frequency to achieve sustained 90% regression: 2qw (85%)
[1]; s.c.
  Dosing frequency to achieve sustained 90% regression: Not tolerated
[2]
  Plasma stability (h) dog: >48 h
[3]; API i.v., species taken as mouse, listed as note (1 umol/kg), head 10 umol/kg
  Payload C0-uM (unconjugated degrader dosed, first payload cell): 8.1 µM
[3]; iv, API i.v., species taken as mouse, listed as note (1 umol/kg), head 10 umol/kg, read-out: Payload AUC-uM.h (unconjugated degrader dosed, first payload cell)
  AUC: 8.2 µM·h
[3]; sc, mouse, subcutaneous dosing, unconjugated Compound V at 1 umol/kg, read-out: Payload AUC
  AUC: 8.2 µM·h
